# Where two headings read alike, the source gives them in different places.
# Tests used:
# [1] = target: T1, acid-urease obtained by culturing Lactobacillus fermentum TK 1214 (Limosilactobacillus fermentum, UniProt P26929); assay: Substrate specificity of acid urease (colorimetric assay of ammonia formed); assay type: biochemical; conditions: substance used as substrate of acid urease
# T1 sequence (P26929 1-573): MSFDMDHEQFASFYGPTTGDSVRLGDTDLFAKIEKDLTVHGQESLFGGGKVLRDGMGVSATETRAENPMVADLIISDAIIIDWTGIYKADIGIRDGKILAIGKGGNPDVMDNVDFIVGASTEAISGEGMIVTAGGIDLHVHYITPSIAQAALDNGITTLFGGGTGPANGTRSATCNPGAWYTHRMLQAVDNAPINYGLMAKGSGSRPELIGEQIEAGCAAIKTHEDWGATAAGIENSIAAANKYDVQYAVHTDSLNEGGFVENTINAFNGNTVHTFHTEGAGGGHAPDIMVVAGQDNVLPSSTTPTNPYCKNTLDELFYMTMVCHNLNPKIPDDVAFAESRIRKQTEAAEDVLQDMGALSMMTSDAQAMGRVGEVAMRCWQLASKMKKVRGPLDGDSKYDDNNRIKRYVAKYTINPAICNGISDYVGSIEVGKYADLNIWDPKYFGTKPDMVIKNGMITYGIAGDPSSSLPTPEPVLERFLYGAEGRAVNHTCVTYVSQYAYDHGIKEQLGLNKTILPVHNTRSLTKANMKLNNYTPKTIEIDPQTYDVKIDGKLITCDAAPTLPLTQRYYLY
# T1 sequence (P26930 1-124 partner): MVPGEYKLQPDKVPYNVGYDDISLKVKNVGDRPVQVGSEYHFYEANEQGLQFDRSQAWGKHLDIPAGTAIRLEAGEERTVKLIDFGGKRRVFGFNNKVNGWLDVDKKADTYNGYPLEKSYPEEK
# T1 sequence (P26931 1-100 partner): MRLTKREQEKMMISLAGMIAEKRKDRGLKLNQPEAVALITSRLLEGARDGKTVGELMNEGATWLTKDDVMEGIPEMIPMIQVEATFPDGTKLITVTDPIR
# Procedure: (2) Substrate specificity:
# (§1) by Colorimetric assay of ammonia formed by reaction with urea.
# (§2) 0.1M acetate buffer (pH 4.0): 0.6 ml
# (§3) React at 37° C. for 10 minutes, add 0.2 ml of 1.0N H2 SO4 and stop the reaction. Take out a part of reaction solution and give coloring by Indophenol reagent. Measure the absorbance at 630 nm, and determine quantity of decomposed urea by assaying formed ammonia.
# (§4) 1 unit activity (I.U.) of acid-urease is quantity of enzyme which decomposes 1 μmole of urea at 37° C., pH 4.0 for one minute.
# [2] = target: T1, acid-urease obtained by culturing Lactobacillus fermentum TK 1214; assay: Inhibition and activation of acid urease by additives; assay type: biochemical
# Procedure: (5) Inhibition and activation:
# as §1, §2, §3, §4
# [3] = target: T1, acid-urease obtained by culturing Lactobacillus fermentum TK 1214; assay: Stabilization of acid urease by additives (treated at 65° C. for 10 minutes); assay type: biochemical; conditions: additive 1 mM, not added: 80
# Procedure: (6) Stabilization (treated at 65° C. for 10 minutes):
# as §1, §3
# [4] = target: acid urease from Lactobacillus fermentum TK 1214 (Limosilactobacillus fermentum, UniProt P26929)
# [5] = target: neutral urease from sword beans
Compound,relevant activity (%) [1] [%],Relative activity (%) after heat treatment [3] [%],other results
C=CCNC(N)=O [Allylurea],0,–,–
O=C(NO)c1ccccc1 [Benzohydroxamic acid],0,–,Relative activity (%) ([2]; additive 0.5 mM): 50%
CCCCCCCC(=O)NO [Caprilohydroxamic acid],0,–,Relative activity (%) ([2]; additive 0.04 mM): 50%
N[C@@H](CS)C(=O)O [Cysteine],–,100,Relative activity (%) ([2]; additive 1 mM): 100%
O[C@H](CS)[C@@H](O)CS [Dithioerithritol],–,100,–
O[C@H](CS)[C@H](O)CS [Dithiothreitol],–,100,–
O=C(O)CN(CCN(CC(=O)O)CC(=O)O)CC(=O)O [EDTA-4Na],–,100,–
CCO [Ethanol],–,–,Relative activity (%) [2]: 50%; Ki (inhibitor constant) value against ethanol [4]: about 40%; Ki (inhibitor constant) value against ethanol [5]: about 9%
CCNC(N)=O [Ethylurea],0,–,–
N[C@@H](CCC(=O)N[C@@H](CS)C(=O)NCC(=O)O)C(=O)O [Glutathione],–,100,Relative activity (%) [2]: 100%
NO [Hydroxylamine],0,–,–
NC(=O)NO [Hydroxyurea],0,–,–
OCCS [Mercapto ethanol],–,100,Relative activity (%) ([2]; additive 1 mM): 100%
CNC(N)=O [Methylurea],0,–,–
O=C(NO)c1cccnc1 [Nicotinhydroxamic acid],0,–,Relative activity (%) ([2]; additive 0.5 mM): 50%
NC(N)=S [Thiourea],0,–,–
NC(N)=O [Urea],100,–,–
O=C([O-])c1cc[c]([Hg][Cl])cc1 [p-Chloromercuricbenzoate],–,–,Relative activity (%) ([2]; additive 0.05 mM): 50%

# — US4970153A, “Method of producing acid urease and the use of the urease” (Nagase & Co., Ltd., priority 1987, dated 1990)
